Patent US20080226639A1, “Heparin Binding Peptide” (Enkan Pharmaceuticals A/S, priority 2004, published 2008)
Residues, ends and D or L forms follow the SMILES beside them.

How the values were obtained:
[1] = system: rat cerebella granular neurons (CGNs); test: Neurite outgrowth of CGNs in co-culture with fibroblasts with or without NCAM expression; type: cell-based; settings: for neurite outgrowth of CGNs grown on fibroblasts without NCAM expression: CGNs on control fibroblasts without NCAM expression; for neurite outgrowth of CGNs grown on fibroblasts without NCAM expression / neurite outgrowth of CGNs grown on fibroblasts expressing NCAM: 24 h co-culture, different peptide concentrations (FIG. 1); for neurite outgrowth of CGNs grown on fibroblasts expressing NCAM: CGNs on monolayers of NCAM expressing fibroblasts
Procedure: Genetically modified fibroblasts (mouse fibroblastoid L-cells) with or without NCAM expression are seeded in eight-well LabTek tissue culture chamber slides (Nunc, Roskilde, Denmark) at a density 7×10^4 of cells/well and maintained at 37° C. and 5% CO2 in DMEM with 10% HS, 100 U/ml penicillin and 100 μg/ml streptomycin. 24 h after plating the medium is removed and CGNs (10^4 cells/well) are seeded on monolayers of fibroblasts with or without NCAM expression in Neurobasal-A medium containing 100 U/ml penicillin, 100 μg/ml streptomycin, 1% glutamax and supplemented with B27, and grown in co-culture for 24 hours, afterwards neurite outgrowth is measured. CGNs are prepared from postnatal day 3-4 rat pups according to Rønn, L. C., Doherty, P., Holm, A., Berezin, V., Bock, E. (2000). J. Neurochem. 75(2):665-71.

[2] = system: fibroblasts with or without NCAM expression (mouse fibroblastoid L-cells); test: Random cell motility of fibroblasts, time-lapse video-recording; type: cell-based; settings: both NCAM expressing fibroblasts and control fibroblasts (FIG. 5)
Procedure: For evaluation the effect of the peptides on cell motility, confluent cultures of fibroblasts with or without NCAM expression are dislodged with 0.5 mg/ml of trypsin and 0.75 mM EDTA in a modified Puck's saline (Gibco BRL), seeded in six-well tissue culture plates (Nunc) at a density of 4×10^3 cells/cm^2 and grown for 24 h at 37° C. and at 5% CO2.
Random cell motility was evaluated by use of time-lapse video-recording and image analysis as described previously (Walmod, et al. (1998). Cell Motil Cytoskeleton. 40(3), 220-37). […]
Evaluation of cell motility and morphology is performed using the image processing software PRIMA. The positions of individual cells are determined by manual marking of the centers of the nuclei. […] The parameters of mean squared cell speed (Sτ), rate of diffusion (R), and locomotive index (LI) are determined according to Walmod, et al. (2000) (Methods Mol. Biology. 161, 59-83) as described below.
The displacement of a cell is the Euclidean distance between two points corresponding to the initial and final positions of the cell. […] The mean squared cell displacement of a cellular population after a given time (t1) of observation was calculated as […]
where P is the persistence time in direction (23). The mean cell speed, Sτ, was calculated as the ratio of the mean displacement of cells (<dτ>) to the time interval τ. […]

[3] = system: primary cerebellar granule neurons (CGNs); test: Neurite outgrowth in primary culture of single CGNs; type: cell-based, rat; settings: single CGNs (FIG. 3); for maximal effect on neurite outgrowth: peptide immobilized on tissue culture plastic, coating concentration of 5 μg/ml
Procedure: Primary cerebellar granule neurons (CGNs) are prepared from postnatal day 3-4 rat pups according to Rønn, L. C., Doherty, P., Holm, A., Berezin, V., Bock, E. (2000). J. Neurochem. 75(2):665-71. Dissociated cerebella cells are grown at 37° C. and 5% CO2 in Neurobasal-A medium containing 20 mM Hepes, 100 U/ml penicillin, 100 μg/ml streptomycin, 1% glutamax and supplemented with B27 (all from Gibco BRL). For testing the effect of the peptides, CGNs are seeded in eight-well LabTech tissue chamber slides with a growth surface of Permanox plastic (Nunc) at a density of 10^4 cells/well in Neurobasal-A medium containing 100 U/ml penicillin, 100 μg/ml streptomycin, 1% glutamax and supplemented with B27. When treated with Heparinase III (1 U/ml), the enzyme is added to the culture medium immediately after plating. CGNs are treated with the enzyme for 1 h before addition of different concentrations (1 μg/ml, 5 μg/ml, and 20 μg/ml) of the peptides. After 24 h of culture, cells are fixed with paraformaldehyde, immunostained with primary mouse antibodies against CD90 (Thy-1) (1:200) (Caltag Laboratories, USA) (PC12-E2 cells) or GAP-43 (1:1000) (Chemicon, USA) (CGNs) and secondary Alexa Fluor®488 goat antibody against mouse IgG (1:1000) (Molecular Probes, Netherlands), and the length of neurites is measured by a stereological method as previously described (Ronn, L. C., Ralets, I., Hartz, B. P., Bech, M., Berezin, A., Berezin, V., Møller, A., Bock, E (2000). J Neurosci Methods. 100(1-2), 25-32).

[4] = molecular target: T1, recombinant Trk B receptor (Homo sapiens, UniProt Q16620); test: BIAcore binding analysis to Trk B receptor; settings: HBP or Ig2 module immobilized on sensor chip CM5, Trk B injected, 25° C., pH 7.4 (FIG. 7)
T1 construct: purchased RD Systems (USA)
Procedure: Recombinant the Ig2 module of NCAM was prepared using in the yeast P. pastoris expression system (Invitrogen, USA) as previously described (Kiselyov et al., Biol. Chem. 272, 10125-10134, 1997). Recombinant Trk B receptor was purchased from RD Systems (USA).
Binding analysis was performed using a BIAcoreX instrument (Biosensor AB) at 25° C. using 10 mM sodium phosphate pH 7.4, 150 mM NaCl as running buffer. The flow-rate was 5 μl/min. Data were analysed by non-linear curve-fitting using the manufacture's software. The HBP or recombinant Ig 2 module of NCAM were immobilized on a sensor chip CM5 using amine coupling kit (Biosensor AB) as follows: 1) the two halves of the chip (designated Fc1 and Fc2) were activated by 20 μl activation solution; 2) the protein was immobilized on Fc1 using 12 μl 20 μg/ml protein in 10 mM sodium phosphate buffer pH 6.0; 3) Fc1 and Fc2 were blocked by 35 μl blocking solution. Binding of Trk B to the immobilized HBP or the Ig module II of NCAM was studied as follows: Trk B was injected simultaneously into Fc1 (with the immobilized HBP or Ig module II of NCAM) and Fc2 (with nothing immobilized). The curve representing unspecific binding of the compound to the surface of Fc2 was subtracted from the curve representing binding of Trk B to the immobilized protein (HBP or the Ig 2 module of NCAM) and the surface of Fc1. […]

T1 sequence (Q16620 32-822): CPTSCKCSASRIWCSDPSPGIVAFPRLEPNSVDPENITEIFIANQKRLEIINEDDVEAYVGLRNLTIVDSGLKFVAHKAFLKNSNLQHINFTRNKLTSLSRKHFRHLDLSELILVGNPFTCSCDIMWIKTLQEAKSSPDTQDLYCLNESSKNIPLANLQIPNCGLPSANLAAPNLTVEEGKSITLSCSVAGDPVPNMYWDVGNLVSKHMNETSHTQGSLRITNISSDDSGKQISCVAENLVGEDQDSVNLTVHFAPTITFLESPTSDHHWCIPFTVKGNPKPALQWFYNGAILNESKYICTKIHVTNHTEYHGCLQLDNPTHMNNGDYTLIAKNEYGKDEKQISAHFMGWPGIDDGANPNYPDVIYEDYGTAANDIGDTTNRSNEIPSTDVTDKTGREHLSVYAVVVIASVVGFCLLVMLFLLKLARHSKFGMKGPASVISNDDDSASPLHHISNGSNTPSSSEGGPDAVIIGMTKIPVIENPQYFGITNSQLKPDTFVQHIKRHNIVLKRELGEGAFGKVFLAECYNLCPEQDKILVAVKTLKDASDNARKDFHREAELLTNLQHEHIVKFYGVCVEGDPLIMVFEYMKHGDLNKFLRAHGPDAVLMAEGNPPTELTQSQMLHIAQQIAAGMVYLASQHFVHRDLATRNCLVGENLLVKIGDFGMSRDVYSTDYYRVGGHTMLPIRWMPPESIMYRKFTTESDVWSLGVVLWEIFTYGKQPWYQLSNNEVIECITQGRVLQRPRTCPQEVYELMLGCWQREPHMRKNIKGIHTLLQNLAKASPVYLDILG

| Kd [4] | Molecule | effect on NCAM mediated neurite outgrowth in co-cultures of CGNs with NCAM expressing fibroblasts, in the presence of HBP ([1]; NCAM expressing fibroblasts, HBP present (FIG. 2)) | effect on NCAM mediated neurite outgrowth in the absence of HBP ([1]; NCAM expressing fibroblasts, no HBP (FIG. 2)) | cell motility: rate of diffusion (R), mean cell speed (Sτ), locomotive index (LI) [2] | neurite outgrowth of CGNs grown on fibroblasts without NCAM expression [1] | neurite outgrowth of CGNs grown on fibroblasts expressing NCAM [1] | maximal effect on neurite outgrowth [3] | neuritogenic effect on CGNs grown on control fibroblasts under treatment with SU5402 (FGFR inhibitor) ([1]; control fibroblasts without NCAM expression, plus SU5402 (FIG. 2)) | change of the neurite outgrowth effect by treatment with heparinase III ([3]; heparinase III 1 U/ml) |
| --- | --- | --- | --- | --- | --- | --- | --- | --- | --- |
|  | Cc1c[nH]c(/C=C2\C(=O)Nc3ccccc32)c1CCC(=O)O [SU5402, reference compound] | only partially inhibited | blocks NCAM mediated neurite outgrowth |  |  |  |  |  |  |
|  | KGRDVILAKDVRVI (HBP mutant (peptide M)) [HBP mutant, Lys-161 and Phe-166 substituted for Ala and Val] |  |  | inhibitory effect on the motile behaviour of fibroblasts similar to the effect of HBP | still stimulates neurite outgrowth | does not affect the neurite outgrowth response | 400% |  |  |
|  | CC[C@H](C)[C@H](NC(=O)[C@H](Cc1ccccc1)NC(=O)[C@H](CCCNC(=N)N)NC(=O)[C@@H](NC(=O)[C@H](CC(=O)O)NC(=O)[C@H](CCCCN)NC(=O)[C@H](CCCCN)NC(=O)[C@H](CC(C)C)NC(=O)[C@@H](NC(=O)[C@@H](NC(=O)[C@H](CC(=O)O)NC(=O)[C@H](CCCNC(=N)N)NC(=O)CNC(=O)[C@@H](N)CCCCN)C(C)C)[C@@H](C)CC)C(C)C)C(N)=O [HBP, KGRDVILKKDVRFI] (H-KGRDVILKKDVRFI-NH2; N-terminus and C-terminus assumed) |  |  | clear inhibition of cell motility | in a dose-dependent manner increases neurite outgrowth | in a dose-dependent manner increases neurite outgrowth | 680% | is not blocked by treatment with SU5402 | reduced the effect of HBP |
| 1 to 10 nM | Ig 2 module of NCAM: recombinant Ig2 module of NCAM prepared in the yeast P. pastoris expression system (protein) KLMFKNAPTPQEFKEGEDAVIVCDVVSSLPPTIIWKHKGRDVILKKDVRFIVLSNNYLQIRGIKKTDEGTYRCEGRILARGEINFKDIQVIVNV |  |  |  |  |  |  |  |  |
